# Measured values: US11564913B2, “Compositions and methods for treating cancer” (Children's Hospital Medical Center, priority 2019, dated 2023)
# pKd: −log10 of the molar value.
# Molecular target: T1, Rac1 (Homo sapiens, UniProt P63000)
# T1 construct: His6 (N); made in house
# Assay: Microscale thermophoresis (MST) binding
# Details: no saturation at highest concentration tested, read-out: Kd, best estimate
# Experimental: FIG. 14: IODVA1 targets Vav3 in vitro and in vivo. (A) Ba/F3 cells expressing empty vector Mieg3 or p190-BCR-ABL1 were treated with vehicle control or IODVA1 (IO1, 3 μM) for 30 min and incubated with GST-Rac and glutathione beads. Beads were washed and the protein complexes were separated on SDS-PAGE and immunoblotted for pVav3. Input Vav3 was used as control. (B) Binding affinity (Kd) between IODVA1 and Vav3 (green), LARG (brown), and RacGDP (blue). […] Error bars=SD; N=3. (C) Quantification of the average number of colonies made by bone marrow wild-type (black) and Vav3^−/− (lilac) p190-BCR-ABL1 leukemic cells treated with vehicle control or IODVA1 (IO1, 1 and 3 μM) (* p≤0.05; ** p≤0.01; *** p≤0.001; ns, not significant). (D) Representative histogram data of the cell cycle analysis of wild-type (black and grey bars) and Vav3^−/− (dark and light lilac) bone marrow cells expressing p190-BCR-ABL and treated with vehicle control or IODVA1 (IO1, 3 μM) for 20 h. (E) Quantification by densitometry of the pVav3 band from FIG. 14A. […]
# To test this hypothesis, we measured its binding affinity (Kd) to recombinant Vav3 and Rac1 using microscale thermophoresis (MST); the catalytic domain (DH/PH) of the RhoGEF LARG served as negative control. […] Second, like Vav3, LARG contains a DH/PH domain responsible for the exchange activity such that any non-specific binding to this domain should be detected. […]
smiles,measurement,value
"OC1(c2ccccn2)N=C(Nc2nc3ccccc3[nH]2)N=C1c1ccccn1 (stereo not shown) [IODVA1, (Z)-2-((1H-benzo[d]imidazol-2-yl)imino)-4,5-di(pyridin-2-yl)-2,5-dihydro-1H-imidazol-5-ol]",pKd,~4.45
